Laboratory results published in patent US20050233413A1, “Neuroprotective polypeptides and methods of use” (priority 2002, published 2005).
Read-outs that look alike come from different tables or passages of the source. Where no end group is shown, it is not given here.

Assays:
[1] = system: Aβ and four FAD genes (V642I-APP, NL-APP, M146L-PS1, and N141I-PS2); settings: cited from earlier work
[2] = system: HN (self-dimerization); assay: Dimerization experiment (Ni-bead precipitation of FLAG-tagged peptide by (His)6-tagged peptide); format: binding; settings: Ni-bead precipitation, anti-FLAG immunoblot
Procedure: (§1) Synthetic (His)6-tagged HN derivative peptides (1 nmol) was incubated with 20 μl of Ni-NTA agarose (QIAGEN, Hilden, Germany) in a total volume of 0.5 ml of buffer A [20 mM Tris/HCl (pH8.0) and 1 mM DTT] for 1 hr at 4° C. and washed once with buffer B [20 mM Tris/HCl (pH 7.4), 1 mM DTT, and 150 mM NaCl]. Synthetic FLAG-tagged peptides (1 nmol) were mixed with the beads immobilizing (His)6-tagged peptides in a total volume of 0.5 ml of buffer B for 2 hr at 4° C. on a rotating shaker, and washed three times with buffer B. The washed beads were mixed with 20 μl of 2× sampling buffer [100 mM Tris/HCl (pH6.8), 200 mM DTT, 4% (w/v) SDS, 0.2% bromophenol blue, and 20% (v/v) glycerol] and boiled. The supernatant was submitted to Tris/Tricine SDS-PAGE, followed by immunoblotting analysis with 1/5000 anti-FLAG monoclonal antibody M2 (Sigma).

[3] = system: primary cultured neurons treated with 25 μM Aβ1-43; format: cell-based; settings: for concentration of full neuroprotection against Aβ1-43 / suppression of Aβ neurotoxicity in the presence of 100 μM EFLIVIKS: 25 μM Aβ1-43; for suppression of Aβ neurotoxicity in the presence of 100 μM EFLIVIKS: EF-HN and EF-HNG at 10 μM, WST-8 and Calcein assays
Procedure: (§2) In one assay, transfection with V642I-APP causes cell death in F11 neuronal hybrid cells. In the other, treatment with Aβ peptides causes cell death in primary cultured cortical neurons.
(§3) The primary culture of mouse cortical neurons was performed in poly-L-lysine-coated 24-well plates or 96-well plates (Sumitomo Bakelite, Akita, Japan), in the absence of serum and the presence of N2 supplement, as described previously. The purity of neurons by this method was >98%. Prepared neurons (for neurons seeded in 96-well plates: 2.5×10^4 or 5×10^4 cells/well, 100 μl culture medium/well; for neurons seeded in 24-well plates: 1.25×10^5 cells/well, 250 μl culture medium/well) were preincubated with or without 10 μM (in case for the experiment with 10 μM HN) synthetic HN for 16 hr, and treated with 25 μM Aβ in the presence or absence of 10 μM HN for 72 hr, respectively. As primary neurons were vulnerable to transient dryness during medium exchange, we treated neurons with 25 μM Aβ as follows. First, a half volume (50 μl for neurons in 96-well plates; 125 μl for neurons in 24-well plates) of old medium was discarded. Then, the same volume (50 μl for neurons in 96-well plates; 125 μl for neurons in 24-well plates) of prewarned fresh medium containing 10 μM HN and 50 μM Aβ (Aβ was directly resolved) was added to the culture. The Aβ peptides used at 25 μM to induce neurotoxicity formed aggregation in the medium during the cell culture at 37° C. for 72 hr. as described. The WST-8 cell viability assay was performed, using Cell Counting Kit-8 (Wako Pure Chemical Industries, Osaka, Japan), as described previously.
(§4) Calcein assay was performed with Calcein-AM {3′,6′-di-(O-acetyl)-2′,7′-bis [N,N-bis(carboxymethyl)aminomethyl] fluorescein, tetraacetoxymethyl ester; Dojindo}, as described previously. These assays were simultaneously performed in the experiments with neurons seeded in 96-well plates, as follows. Seventy-two hours after Aβ treatment, cells were added with the mixture of 10 μl WST-8 solution and 1 μl of 600 μM Calcein-AM. After 2 hr incubation in a CO2 incubator at 37° C., WST-8 absorbance was measured as OD450. After exchanging the medium to PBS to lower the background, Calcein-specific fluorescence (ex=485 nm, em=535 nm) was observed by fluorescence microscopy or measured by a spectrofluorometer (Wallac1420 ARVOsx Multi Label Counter). Most cell viability data using Calcein assay and WST-8 assay were obtained from neurons seeded at 5×10^4 cells/well in 96-well plates (high-density neurons) and confirmed by both assays with the cells seeded at 2.5×10^4 cells/well (low-density neurons).
Some experiments for Calcein assay were performed with neurons seeded in 24-well plates. […] In most experiments using primary neurons, four independent experiments were performed and the means? S. D. of the results were discussed.

[4] = system: Aβ and V642I-APP; format: cell-based; settings: Table 5, marked **
Description: (§5) F11 cells, the hybrid of a rat embryonic-day-13 primary cultured primary neuron and a mouse neuroblastoma cell, are one of the best models for primary cultured neurons as they carry representative characteristics of primary neurons, such as generation of action potentials without differentiation by NGF [22]. They have been used in various studies of is neuronal functions. Using these cells, the underlying mechanisms for cytotoxicity by V642I-APP have well been analyzed. Cytotoxicity by V642 mutants of APP has also been confirmed in multiple different systems. F11 cells were grown in Ham's F-12 (GibcoBRL, Gaithersburg, Md.) plus 18% fetal bovine serum (FBS; Hyclone, Logan, Utah) and antibiotics, as described previously. F11 cells (7×10^4 cell/well in a 6-well plate cultured in Ham's F-12 plus 18% FBS for 12-16 hr) were transfected with plasmids encoding FAD genes by lipofection [FAD cDNA 2 μg, LipofectAMINE 4 μl, PLUS reagent 8 μl (GibcoBRL)] in the absence of serum for 3 hr, and were incubated with Ham's F-12 plus 18% FBS for 2 hr. Then, culture media were changed to Ham's F-12 plus 10% FBS with or without HN peptides, and cells were cultured for an additional 67 hr. Seventy-two hr after transfection, cell mortality was measured by Trypan blue exclusion assay, performed as follows. Cells were suspended by pipetting gently, and 50 μl of 0.4% (finally 0.08%) Trypan blue solution (Sigma, St Louis, Mo.) was mixed with 200 μl of the cell suspension at room temperature. Stained cells were counted within 3 min after the mixture with Trypan blue solution.
as §3
as §4, with “Most cell viability data using Calcein assay and WST-8 assay were obtained from neurons seeded at 5×10^4 cells/well in 96-well plates (high-density neurons) and confirmed by both assays with the cells seeded at 2.5×10^4 cells/well (low-density neurons).” left out

[5] = system: F11 cells transfected with V642I-APP cDNA; assay: F11 cell death by V642I-APP transfection (Trypan blue exclusion); format: cell-based; settings: for potency of cytoprotection against V642I-APP relative to HN: times higher than that of HN
Description: as §2, §5

[6] = Apparent stability of peptides in the culture medium; format: physicochemical; settings: 72-hr incubation of 10 μM peptides in the cultured medium; data not shown
Description: The Ser^7 residue plays a role different from that of Ser^14. S7A substitution nullified the action of HN, while Ser^7 racemation had no influence. […] Given the fact that EFLIVIKS or EFLIVKS is the established amino acid sequence to form a dimer and that EFLIVIKS alone had no cytoprotective action, it is most likely that Ser^7 is essential for HN to self-dimerize and that self-dimerization of HN is essential for the action of HN. […] This level of stability alterations could not account for the drastic potentiation of the rescue action by the fusion with EFLIVIKS.

[7] = system: F11 cells transfected with V642I-APP, NL-APP, M146L-PS1 or N141I-PS2 cDNA; format: cell-based, rat/mouse hybrid
Description: as §5

[8] = system: Aβ and four FAD genes (V642I-APP, NL-APP, M146L-PS1, and N141I-PS2); format: cell-based
Description: as §5, §3
as §4, with “Most cell viability data using Calcein assay and WST-8 assay were obtained from neurons seeded at 5×10^4 cells/well in 96-well plates (high-density neurons) and confirmed by both assays with the cells seeded at 2.5×10^4 cells/well (low-density neurons).” left out

[9] = molecular target: T1, HN (self-dimerization) (Homo sapiens, UniProt Q8IVG9); assay: Dimerization experiment (Ni-bead precipitation of FLAG-tagged peptide by (His)6-tagged peptide); format: binding; settings: excess amounts of competitor
T1 construct: host or cells: chemically synthesised peptide (no expression host)
Procedure: as §1

[10] = system: V642I-APP, NL-APP, M146L-PS1, N141I-PS2 holoprotein expression in F11 cells; assay: Immunoblot analysis of transfected FAD gene expression; format: cell-based, rat/mouse hybrid; settings: F11 cells treated with peptide
Procedure: Immunoblot analysis was performed as described. For the analysis of transfected FAD gene expression, lysates (20 μg/lane) from cells transfected with each FAD gene (V642I-APP, NL-APP, M146L-PS1, N141I-PS2) were submitted to SDS-PAGE and were electrically blotted to a PVDF sheet. After blocking, the sheet was soaked with antibodies [for APP mutants: 5 μg/ml 22C11 (CHEMICON, Temecula, Calif.); for PS1 mutant: 1/2000 of anti-PS1 N-terminus antibody (CHEMICON) for PS2 mutant: 1/500 of anti-PS2 antibody (Cell Signaling Technology, Beverly, Mass.)] and then with HRP-labeled secondary antibodies. The antigenic bands were visualized by ECL (Amersham Pharmacia Biotech, Uppsala, Sweden).

[11] = molecular target: T2, HN (self-dimerization) (Homo sapiens, UniProt Q8IVG9, S7A); assay: Dimerization experiment (Ni-bead precipitation of FLAG-tagged peptide by (His)6-tagged peptide); format: binding; settings: excess amounts of competitor
T2 construct: host or cells: chemically synthesised peptide (no expression host)
T2 sequence (Q8IVG9 with tags, fused parts or gaps S7A): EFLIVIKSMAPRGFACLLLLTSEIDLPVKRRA
Procedure: as §1

PRGFSCLLLLTSEIDLP [HN17, Pro3-Pro19 region of HN]
cytoprotection potency compared with authentic HN (in words) ([1]; as disclosed in [16]): as potent in cytoprotection as authentic HN

EFLIVIKSMAPRGFACLLLLTSEIDLPVKRRA [EF-(S7A)HN]
self-dimerization / complex formation (in words) [2]: self-dimerizes through the EFLIVIKS region
IC50 [3]: ~10 nM
concentration of full neuroprotection against Aβ1-43 [3]: 100 nM
suppression of Aβ neurotoxicity in the presence of 100 μM EFLIVIKS [3]: could not suppress Aβ neurotoxicity at all
Full protection (minimal concentration that exerted full cytoprotection) [4]: ˜100 nM
IC50 [5]: 1 nM
concentration of full cytoprotection / complete suppression against V642I-APP ([5]; F11 cells): 100 nM
potency of cytoprotection against V642I-APP relative to HN [5]: about 100 times
amount of peptide relative to the amount at time zero [6]: virtually unaltered

EFLIVIKSMAPRGFSCLLLLTGEIDLPVKRRA [EF-HNG]
IC50 ([7]; each of V642I-APP, read-out: IC50 of suppression of neuronal cell death by FAD genes): ~0.01 nM
concentration of full neuroprotection against Aβ1-43 [3]: 1 nM
suppression of Aβ neurotoxicity in the presence of 100 μM EFLIVIKS [3]: could fully suppress Aβ neurotoxicity
IC50 ([3]; both Calcein fluorescence and WST-8 absorbance assays, read-out: IC50 of cytoprotection against Aβ1-43): ~0.1 nM
IC50 [8]: 0.01 to 0.1 nM
Full protection (minimal concentration that exerted full cytoprotection) ([8]; Table 5, marked *): ˜1 nM
amount of peptide relative to the amount at time zero [6]: virtually unaltered

YMAPRGFSCLLLLTGEIDLPVKKKK [HNG-KKK, HNG with its C-terminal KRRA substituted to KKKK]
self-dimerization / complex formation (in words) [2]: little activity to form a complex with HN
effect of excess competitor on HN-FLAG precipitation by (His)6-HN [9]: no effect
concentration up to which no neuroprotection against Aβ1-43 was exerted ([3]; 25 μM Aβ1-43, primary neurons): > 10 µM
neuroprotective action against Aβ1-43 (in words) ([3]; 25 μM Aβ1-43, primary neurons): lost the neuroprotective action
Full protection [4]: NE** (the corresponding peptide had no cytoprotective effect at 10 μM)
IC50 [4]: > 10000 nM

MAPAGASCLLLLTGEIDLPVKRRA [AGA-HNG, reference compound]
CMV-promoter-driven expression of V642I-APP, NL-APP, M146L-PS1, or N141I-PS2 holoprotein [10]: little or only marginal alteration
concentration of full cytoprotection [8]: 100 to 300 pM
Full protection (minimal concentration that exerted full cytoprotection) ([8]; Table 5, marked *): 100 to 300 pM
augmentation of the potency of HNG by Ala substitution at both Arg4 and Phe6 ([1]; previously reported [16]): 3-10 times
concentration of full neuroprotection ([1]; previously reported [16]): 100 to 300 pM

MAPRGFACLLLLTSEIDLPVKRRA [S7A HN]
effect of excess competitor on EF-(S7A)HN-FLAG precipitation by (His)6-EF-(S7A)HN [11]: not
self-dimerization / complex formation (in words) [2]: little activity for self-dimerization
cytoprotective action against FAD genes (in words) ([7]; V642I-APP): no effect
concentration up to which no neuroprotection against Aβ1-43 was exerted ([3]; 25 μM Aβ1-43, primary neurons): > 10 µM
Full protection ([8]; Table 5, marked *): NE* (the corresponding peptide had no cytoprotective effect at 10 μM)
IC50 ([8]; Table 5, marked *, read-out: IC50): > 10000 nM
concentration up to which no cytoprotection against V642I-APP was exerted ([5]; F11 cells): > 10 µM
amount of peptide relative to the amount at time zero [6]: about ⅔

EFLIVIKSMAPRGFSCLLLLTSEIDLPVKRRA [EF-HN]
suppression of Aβ neurotoxicity in the presence of 100 μM EFLIVIKS [3]: could fully suppress Aβ neurotoxicity
potency of neuroprotection against Aβ relative to HN ([3]; times as high as / higher than authentic HN): about 100 times
Full protection (minimal concentration that exerted full cytoprotection) [4]: ˜100 nM
potency of cytoprotection against V642I-APP relative to HN [5]: about 100 times
amount of peptide relative to the amount at time zero [6]: virtually unaltered
